The term IC50 denotes the concentration that inhibits the measured activity by half.

Structures are written as SMILES. “Also recorded” adds a separate entry of the source.

For experiment [1], the system named is cancer cells driven by oncogenic ROS1 fusion. Kind of experiment: Viability of cancer cells driven by oncogenic ROS1 fusion (FIGS. 3-4). It is filed as cell-based. Particulars: FIG. 3, FIG. 4. As for the experimental part: (§1) Cell viability was measured using the Cell Titer-Glo assay (Promega). In brief, cells were plated in 96-well plates in triplicate at optimal seeding density (determined empirically for each cell line) and incubated at 37° C., 5% CO2 atmosphere for 24 hr prior to the addition of drug or vehicle (0.3% DMSO) to the culture medium. At the end of the assay, Cell Titer-Glow was added to the wells per manufactures recommendation, shaken for two minutes and incubated for 10 minutes at room temperature. Luminescence (0.1 sec) was measured with a Victor II microplate reader (Perkin Elmer) and the resulting data were used to calculate cell viability, normalized to vehicle control.

For experiment [2], the system named is SLC34A2-ROS expressing HCC78 NSCLC cells. The experiment is described as follows: Cell viability (Cell Titer-Glo) in HCC78 cells. Format: cell-based, human. As to conditions: for IC50: Homo sapiens, 72 hr exposure (FIG. 1A), read-out: IC50, loss of HCC78 cell viability; for cells killed by single agent: drug on its own (FIG. 1C). The protocol:
(§2) Human HCC78 NSCLC cells and human TPC-1 thyroid cancer cells were obtained from Dr. Steve Morris (St. Jude's) and grown in RPMI in the presence of fetal bovine serum (10%), 2 mM L-glutamine and antibiotics (100 IU/ml penicillin and 100 μg/ml streptomycin) purchased from Sigma Aldrich. Cells were maintained at 37° C., 5% CO2 atmosphere.
as §1
(§3) Chromosomal rearrangements involving ROS kinase have been reported in several tumor types, including non-small cell lung cancer (NSCLC) and glioblastoma. […] See, e.g., Ting-Lei Gu et al, PLoS One. 2011; 6(1):e15640. To determine if inhibition of Hsp90 affects the activity of ROS fusion kinases and viability of cells driven by such fusions, SLC34A2-ROS expressing HCC78 NSCLC cells were treated with ganetespib and both viability and protein activity was assessed. […] See, e.g., Chenguang Li et al, PLoS One. 2011; 6(11):e28204. […] To determine if ganetespib affects the constitutive activity of ROS, HCC78 cells were treated with ganetespib for 24 hr and the phosphorylation of ROS was assayed by Western blot. […] In addition to SLC34A2-ROS, other ROS chimeras have been identified including CD74-ROS and FIG-ROS. Show in FIG. 1D, Ba/F3 cells stably expressing either CD74-ROS or FIG-ROS were treated with ganetespib for 24 hr and activity of ROS was determined by Western blot.
Background: ATP-based viability assays read luminescence as a measure of living cells.

In experiment [3] the test system is ROS1 fusion protein. Kind of experiment: Degradation of ROS1 fusion protein (FIG. 5). Format: cell-based. The text has this: (§4) Cells, treated with compound for 24 hr, were lysed in RIPA buffer (CST, Danvers, Mass., USA) on ice and clarified by centrifugation. Equal amounts of proteins were resolved by SDS-PAGE and immunoblotted with indicated antibodies (CST). The antigen-antibody complex was visualized and quantitated using an Odyssey system (LI-COR, Lincoln, Nebr., USA).

Experiment [4] deals with ROS (SLC34A2-ROS) in HCC78 cells. Kind of experiment: Western blot of ROS phosphorylation in HCC78 cells. Format: cell-based, human. Particulars: 24 hr, 250 nM (FIG. 1B).
From the text: as §4, §3
In general terms: A western blot detects proteins with antibodies after separation by electrophoresis.

Experiment [5] relates to CCDC6-RET expressing TPC-1 thyroid cancer cells. The experiment is described as follows: Cell viability in TPC-1 cells. Format: cell-based, human. As to conditions: 72 hr (FIG. 2A, FIG. 7). As for the experimental part:
as §2, §1
(§5) Recently, fusions of the RET kinase have also been detected in NSCLC. See, e.g., Fei Li et al, Cell Research (2012), 1-4. One such fusion, CCDC6-RET, was determined to be present in ˜1% of lung adenocarcinomas from never smokers. To investigate whether ganetespib modulates the activity and stability of RET fusions, CCDC6-RET expressing TPC-1 thyroid cancer cells were used as a model.

For experiment [6], the system named is CD74-ROS. Kind of experiment: Western blot of ROS phosphorylation in Ba/F3 cells expressing CD74-ROS. It is filed as cell-based. As to conditions: 24 hr, 100 nM (FIG. 1D).
From the text: as §4, §3

In experiment [7] the test system is FIG-ROS. The experiment is described as follows: Western blot of ROS phosphorylation in Ba/F3 cells expressing FIG-ROS. Format: cell-based. As to conditions: 24 hr, 100 nM (FIG. 1D).
From the text: as §4, §3

Experiment [8] deals with CCDC6-RET. Kind of experiment: Western blot in TPC-1 cells (CCDC6-RET, ERK, PARP). Format: cell-based, human. As to conditions: 24 hr (FIG. 2). The protocol:
as §2, §4, §5

With `C[C@@H](Oc1cc(-c2cnn(C3CCNCC3)c2)cnc1N)c1c(Cl)ccc(F)c1Cl` [crizotinib, reference compound], the “viability of cancer cells driven by oncogenic ROS1 fusion” value in experiment [1] was “inhibited viability”. In experiment [2], the IC50 came to 1.03 µM and the “cells killed by single agent” value is “approximately 50%”.
Regarding `CC(C)c1cc(-c2nnc(O)n2-c2ccc3c(ccn3C)c2)c(O)cc1O` [ganetespib, 3-(2,4-DIHYDROXY-5- ISOPROPYL-PHENYL)-4-(1- METHYL-INDOL-5-YL)-5- HYDROXY-[1,2,4] TRIAZOLE (GANETESPIB)], the “degradation of ROS1 fusion protein” value in experiment [3] is given as “leads to degradation of ROS1 fusion protein”. For the same compound, the “phosphorylation of ROS” value in experiment [4] is listed as “significant dephosphorylation of ROS”. The “cell death / viability of TPC-1 cells” value in experiment [5] is recorded as “resulting in cell death; also recorded: significantly inhibited the viability”. Moreover, the “activity (phosphorylation) of CD74-ROS” value in experiment [6] is given as “effectively reduces the activity”. For the same compound, the “viability of cancer cells driven by oncogenic ROS1 fusion” value in experiment [1] is listed as “inhibited viability; also recorded: significantly inhibited the viability of more cancer cells”. The “activity (phosphorylation) of FIG-ROS” value in experiment [7] is given as “effectively reduces the activity”. Further, in experiment [8], the ERK activity result was “deactivation of ERK”; the PARP cleavage result was “cleavage of the pro-apoptotic protein PARP”; the “degradation of total and phosphorylated CCDC6-RET” value was “potently induced the degradation”. Also, in experiment [2], the IC50 turned out to be 0.017 µM and the “cells killed by single agent” value is on record as “approximately 50%”.

These data come from patent publication US20150099721A1, “TREATING CANCER WITH HSP90 INHIBITORY COMPOUNDS” (Synta Pharmaceuticals Corp., priority 2012, published 2015).
